Laboratory results published in patent US7615356B2, “Ion channel assay methods” (Vertex Pharmaceuticals (San Diego) LLC, priority 2000, dated 2009).
Entries after “also recorded” stand apart in the source; their conditions may differ. Where two headings read alike, the source gives them in different places.

What was measured:
[1] = biological target: Nav 1.2a (Rattus norvegicus, UniProt P04775, N209D); settings: published; cited from earlier work
[2] = biological target: endogenous NaV channels of Chinese Hamster Ovary cells (Nav 1.2a) (Cricetulus griseus, UniProt A0A8C2MK62); assay: Use-dependent block, repetitive electrical stimulation at 1 Hz, CHO cells; type: cell-based
Sequence of endogenous NaV channels of Chinese Hamster Ovary cells (Nav 1.2a) (A0A8C2MK62 entry or part of it): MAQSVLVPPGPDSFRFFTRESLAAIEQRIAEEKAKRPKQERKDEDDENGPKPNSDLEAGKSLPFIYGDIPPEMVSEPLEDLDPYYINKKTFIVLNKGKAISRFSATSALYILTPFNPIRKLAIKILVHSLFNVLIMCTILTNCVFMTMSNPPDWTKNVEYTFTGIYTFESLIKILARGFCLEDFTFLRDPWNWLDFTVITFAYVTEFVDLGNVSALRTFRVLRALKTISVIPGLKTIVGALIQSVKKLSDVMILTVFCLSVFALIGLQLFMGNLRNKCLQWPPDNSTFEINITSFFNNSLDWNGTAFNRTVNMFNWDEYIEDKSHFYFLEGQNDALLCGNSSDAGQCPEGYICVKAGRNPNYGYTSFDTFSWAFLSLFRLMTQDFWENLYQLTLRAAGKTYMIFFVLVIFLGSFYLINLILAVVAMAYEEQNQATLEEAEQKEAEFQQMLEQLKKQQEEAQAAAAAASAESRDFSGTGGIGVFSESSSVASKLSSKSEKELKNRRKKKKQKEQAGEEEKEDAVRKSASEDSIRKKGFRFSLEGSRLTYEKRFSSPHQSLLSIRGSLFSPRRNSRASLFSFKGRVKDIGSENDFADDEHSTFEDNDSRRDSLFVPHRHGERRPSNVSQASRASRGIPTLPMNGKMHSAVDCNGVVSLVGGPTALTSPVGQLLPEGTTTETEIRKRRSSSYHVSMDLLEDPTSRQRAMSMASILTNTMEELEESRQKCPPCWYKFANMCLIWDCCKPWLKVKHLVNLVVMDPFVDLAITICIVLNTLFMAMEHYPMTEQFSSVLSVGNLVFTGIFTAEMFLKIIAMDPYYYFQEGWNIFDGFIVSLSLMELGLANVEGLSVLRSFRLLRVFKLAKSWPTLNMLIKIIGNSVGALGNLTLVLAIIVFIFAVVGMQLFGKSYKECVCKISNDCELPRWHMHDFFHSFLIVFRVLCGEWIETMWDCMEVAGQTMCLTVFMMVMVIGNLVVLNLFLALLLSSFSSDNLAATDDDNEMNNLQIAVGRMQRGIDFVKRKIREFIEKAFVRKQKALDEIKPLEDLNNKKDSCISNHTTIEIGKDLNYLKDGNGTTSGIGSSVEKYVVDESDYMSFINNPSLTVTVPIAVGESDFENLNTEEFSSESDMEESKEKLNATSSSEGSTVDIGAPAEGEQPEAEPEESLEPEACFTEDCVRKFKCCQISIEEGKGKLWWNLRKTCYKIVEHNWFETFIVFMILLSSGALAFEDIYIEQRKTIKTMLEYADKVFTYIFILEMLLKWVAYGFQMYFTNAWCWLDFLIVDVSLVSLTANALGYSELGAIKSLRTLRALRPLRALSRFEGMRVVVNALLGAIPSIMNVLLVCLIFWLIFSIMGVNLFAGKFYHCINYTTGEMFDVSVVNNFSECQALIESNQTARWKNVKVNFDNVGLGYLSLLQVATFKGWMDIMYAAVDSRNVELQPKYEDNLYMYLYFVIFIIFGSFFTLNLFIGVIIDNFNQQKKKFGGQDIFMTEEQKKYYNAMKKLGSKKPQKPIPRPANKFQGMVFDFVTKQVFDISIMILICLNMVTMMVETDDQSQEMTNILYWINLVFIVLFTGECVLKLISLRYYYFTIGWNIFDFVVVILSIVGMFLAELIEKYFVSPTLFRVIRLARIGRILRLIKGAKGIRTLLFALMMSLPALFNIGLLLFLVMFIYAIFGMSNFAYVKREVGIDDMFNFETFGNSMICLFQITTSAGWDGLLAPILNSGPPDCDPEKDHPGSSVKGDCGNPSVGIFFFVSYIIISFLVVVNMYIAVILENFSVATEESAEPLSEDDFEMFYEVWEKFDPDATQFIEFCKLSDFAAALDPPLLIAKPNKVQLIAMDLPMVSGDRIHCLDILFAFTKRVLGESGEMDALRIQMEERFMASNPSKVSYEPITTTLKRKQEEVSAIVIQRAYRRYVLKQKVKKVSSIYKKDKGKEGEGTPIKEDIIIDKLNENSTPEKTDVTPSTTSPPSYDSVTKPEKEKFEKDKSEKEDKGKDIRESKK

[3] = test system: voltage-activated chloride and potassium channels of wild-type HEK-293 cells
[4] = biological target: voltage dependent sodium channel (NaV1) endogenously expressed in wild type CHO cells (Cricetulus griseus, UniProt A0A8C2MK62)
Sequence of voltage dependent sodium channel (NaV1) endogenously expressed in wild type CHO cells (A0A8C2MK62 1-2006): as the sequence (A0A8C2MK62 entry or part of it) above

[5] = test system: HL5 cardiac muscle cells; type: cell-based
[6] = test system: NaV3 sodium channel
[7] = biological target: Nav1.8 (UniProt Q9Y5Y9); assay: Induced spontaneous firing of Nav1.8 expressing cells, high-frequency monophasic pulses; type: cell-based
[8] = test system: TTX-resistant Nav channels; settings: cited from earlier work
[9] = biological target: potassium inward rectifier channel IRK1 (Rattus norvegicus, UniProt Q64273)
Sequence of potassium inward rectifier channel IRK1 (Q64273 whole entry): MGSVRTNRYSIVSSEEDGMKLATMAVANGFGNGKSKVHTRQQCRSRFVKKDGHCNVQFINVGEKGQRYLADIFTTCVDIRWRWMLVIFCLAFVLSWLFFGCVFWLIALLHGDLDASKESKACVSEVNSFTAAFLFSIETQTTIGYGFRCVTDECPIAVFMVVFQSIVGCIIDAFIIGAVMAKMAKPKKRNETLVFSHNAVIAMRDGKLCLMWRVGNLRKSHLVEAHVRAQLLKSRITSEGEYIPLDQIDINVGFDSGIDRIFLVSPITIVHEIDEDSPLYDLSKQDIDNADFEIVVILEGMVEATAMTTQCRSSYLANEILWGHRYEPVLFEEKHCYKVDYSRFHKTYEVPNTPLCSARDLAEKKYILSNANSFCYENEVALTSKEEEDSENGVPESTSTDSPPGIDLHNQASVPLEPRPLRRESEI

[10] = biological target: Nav1.8 (UniProt Q9Y5Y9); assay: Paired-pulse train stimulation, recovery from block, cells expressing Nav1.8; settings: for IC50: approximate, from previous experiment
[11] = test system: sodium channels in dorsal root ganglion (DRG) neurons; assay: Dorsal root ganglion neuron assay, electrical stimulation at different external potassium; type: cell-based, rat; settings: before and after addition of 16 mM potassium
Procedure: We have developed a dorsal root ganglion (DRG) neuron assay on the electrical stimulation with optical detection platform that allows us to detect and quantify voltage dependent blockers of the sodium channels in these neurons. The DRG neurons were dissociated from neonatal rat pups and stained with FRET voltage sensing dyes. The neurons were then placed in the middle of the well on a 96 well plate and preincubated with varying concentrations of the test compound. Electrical stimulation was applied and the resulting response recorded by the plate reader. Dose response plots were then constructed for each compound tested. Increased levels of potassium were then added to depolarize the neurons and move more of the sodium channels into the inactivated state. […] This estimates the degree of voltage or state dependence for these compounds. […] As shown, the high potassium levels depolarize the cells. The compounds' block is voltage dependent, a type of use-dependent activity. […] This example illustrates also the use of this method with primary neurons.

[12] = test system: NaV4 sodium channel; type: cell-based; settings: HEK-293 NaV4; 33 V/cm, 10 ms/phase biphasic, 15 Hz burst for 1.5 seconds; read-out: estimated EC50 (Hill function fit)
Text: For this experiment, electrical stimulation parameters were E=33 V/cm, 10 ms/phase biphasic stimulation, 15 Hz burst for 1.5 seconds.
To determine whether the present method is generally applicable to a wide range of different sodium channels, HEK-293 cells were stably transfected with another voltage dependent sodium channel, hereinafter referred to as NaV4. These cells were transfected, selected and loaded with FRET dyes as described in section VI and Example 8.

[13] = biological target: N-type calcium channel (Homo sapiens, UniProt Q00975); assay: Hexyl oxonol assay for use-dependent blockers of CaV; type: cell-based; settings: 5 μM
Procedure: Assays can also be developed using fast membrane potential sensors, such as DISBAC6(3) and CC2-DMPE voltage-sensitive FRET probes, to detect use-dependent compounds for voltage-gated Ca targets. The following illustrative example is for an N-type calcium channel using hardware compatible with 96 well plates.
Prepare a solution of 2× CC2DMPE and DISBAC6(3) by Vortexing together 10 mM CC2DMPE (in DMSO) and 10 mM DISBAC6(3) (in DMSO) with an equivalent volume of 10% pluronic (in DMSO). Vortex in required amount of bath. Each cell plate will require 5 ml of this solution. Wash plate with a plate washer leaving a residual volume of 50 μl. Add 50 μL of 2× CC2DMPE to wells. Resulting concentrations of dyes will be 4 μM CC2-DMPE and 1.25 μM DISBAC6(3). Stain for 30 minutes in the dark at RT. The test compounds are prepared at 2× concentration in extracellular ringer solution and added to wells containing stained cells. Stimulation parameters such as stimulation frequency, pulse duration, stimulation voltage can be easily manipulated to elicit desired responses.
FIG. 40 illustrates an example of how a use-dependent compound such as mibefradil can be detected using this hexyl assay.

[14] = 1 Hz stimulation, 1st peak response
[15] = 1 Hz stimulation, 20th peak response
[16] = read-out: IC50 @ 1st peak, 1 Hz stimulation, 1st peak response
[17] = read-out: IC50 @ 20th peak, 1 Hz stimulation, 20th peak response

Sequence of Nav 1.2a (P04775 whole entry N209D): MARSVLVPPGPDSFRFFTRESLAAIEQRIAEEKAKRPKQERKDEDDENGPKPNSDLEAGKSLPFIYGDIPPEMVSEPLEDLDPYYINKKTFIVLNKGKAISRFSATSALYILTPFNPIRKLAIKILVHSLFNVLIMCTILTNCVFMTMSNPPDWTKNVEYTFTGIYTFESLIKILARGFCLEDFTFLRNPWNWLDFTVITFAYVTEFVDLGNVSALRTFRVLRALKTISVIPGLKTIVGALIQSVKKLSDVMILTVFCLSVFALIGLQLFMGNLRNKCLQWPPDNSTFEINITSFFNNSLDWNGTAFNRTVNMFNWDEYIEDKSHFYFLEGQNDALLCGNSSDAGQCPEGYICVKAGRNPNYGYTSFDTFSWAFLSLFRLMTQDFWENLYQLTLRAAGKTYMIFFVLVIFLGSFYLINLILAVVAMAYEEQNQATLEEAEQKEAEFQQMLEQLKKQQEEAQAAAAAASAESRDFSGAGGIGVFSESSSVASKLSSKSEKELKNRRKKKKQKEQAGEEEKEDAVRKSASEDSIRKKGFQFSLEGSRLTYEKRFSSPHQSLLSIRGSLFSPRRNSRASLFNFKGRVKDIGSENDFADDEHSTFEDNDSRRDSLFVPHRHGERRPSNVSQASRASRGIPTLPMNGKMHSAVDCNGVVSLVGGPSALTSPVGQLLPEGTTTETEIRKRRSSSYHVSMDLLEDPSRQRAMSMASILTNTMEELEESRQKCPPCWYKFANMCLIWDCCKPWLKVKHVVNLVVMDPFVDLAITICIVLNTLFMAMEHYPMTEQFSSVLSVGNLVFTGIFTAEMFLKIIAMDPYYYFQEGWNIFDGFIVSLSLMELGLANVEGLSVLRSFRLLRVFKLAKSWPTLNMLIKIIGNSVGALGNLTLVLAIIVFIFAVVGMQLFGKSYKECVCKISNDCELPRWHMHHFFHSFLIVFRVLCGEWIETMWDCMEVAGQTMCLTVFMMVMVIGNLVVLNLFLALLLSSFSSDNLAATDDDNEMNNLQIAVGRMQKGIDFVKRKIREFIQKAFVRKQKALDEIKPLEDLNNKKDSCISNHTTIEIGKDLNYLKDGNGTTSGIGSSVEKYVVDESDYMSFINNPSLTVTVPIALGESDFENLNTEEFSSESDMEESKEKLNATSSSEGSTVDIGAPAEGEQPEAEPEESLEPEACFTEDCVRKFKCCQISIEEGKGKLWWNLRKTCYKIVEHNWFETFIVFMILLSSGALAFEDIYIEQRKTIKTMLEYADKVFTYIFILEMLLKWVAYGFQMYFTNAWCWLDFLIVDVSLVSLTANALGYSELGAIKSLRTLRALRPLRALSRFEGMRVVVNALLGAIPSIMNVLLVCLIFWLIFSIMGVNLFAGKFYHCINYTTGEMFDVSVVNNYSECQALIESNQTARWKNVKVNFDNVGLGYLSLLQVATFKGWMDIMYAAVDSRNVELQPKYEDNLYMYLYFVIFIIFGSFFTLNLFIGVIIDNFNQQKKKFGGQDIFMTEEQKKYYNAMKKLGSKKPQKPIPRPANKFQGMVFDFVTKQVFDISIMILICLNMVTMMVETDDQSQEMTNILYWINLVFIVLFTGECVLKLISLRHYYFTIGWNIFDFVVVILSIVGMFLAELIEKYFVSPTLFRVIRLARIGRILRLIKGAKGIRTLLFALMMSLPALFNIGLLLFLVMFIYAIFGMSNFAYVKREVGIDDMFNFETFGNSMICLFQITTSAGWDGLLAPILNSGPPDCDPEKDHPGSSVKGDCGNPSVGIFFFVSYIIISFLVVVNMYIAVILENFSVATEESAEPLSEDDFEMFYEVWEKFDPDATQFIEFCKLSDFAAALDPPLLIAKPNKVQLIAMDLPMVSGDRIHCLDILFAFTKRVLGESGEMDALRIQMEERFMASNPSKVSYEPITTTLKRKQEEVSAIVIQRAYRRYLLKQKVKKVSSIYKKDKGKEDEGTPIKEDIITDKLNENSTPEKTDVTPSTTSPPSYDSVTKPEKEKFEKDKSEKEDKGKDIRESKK

## CN(C)CCC=C1c2ccccc2CCc2ccccc21 [amitriptyline]
[1]
  IC50: 5.5 µM
[2]
  Hill coeff. @ 1st peak: 2.65
  Hill coeff. @ 20th peak: 1.07
  UDI (1 Hz), ratio of IC50(1st response) over IC50(20th response): 3.24
[2]; read-out: IC50 @ 1st peak
  IC50: 5.19 ± 1.57 µM
[2]; read-out: IC50 @ 20th peak
  IC50: 1.6 ± 0.38 µM

## CC[N+](CC)(CC)CC [TEA, Tetraethylammonium]
[3]
  effect on the negative voltage response: partially blocks

## Cc1cccc(C)c1OCC(C)N (centres unmarked) [mexiletine]
[1]
  IC50: 21 to 533 µM
[2]
  Hill coeff. @ 1st peak: 3.07
  Hill coeff. @ 20th peak: 0.98
  UDI (1 Hz), ratio of IC50(1st response) over IC50(20th response): 2.59
[2]; read-out: IC50 @ 1st peak
  IC50: 58.1 ± 11 µM
[2]; read-out: IC50 @ 20th peak
  IC50: 22.5 ± 5.31 µM

## NC1=N[C@H](O)[C@H]2[C@H]3O[C@]4(O)O[C@@H]([C@@H](O)[C@@]2(N1)[C@@H]4O)[C@]3(O)CO [TTX, tetrodotoxin]
[4]
  Hill coefficient: 1.47
  block of the effect of electrical stimulation: completely block
[4]; read-out: EC50 (Hill function fit to dose response)
  EC50: 0.009 µM
[5]
  effect on the positive response: partially blocks
  sustained signal above 50 V/cm: unaffected
[2]
  use-dependent block of endogenous NaV channels: only minor or no use-dependent block; also recorded: least use-dependent
[6]; read-out: EC50 (Hill function fit)
  EC50: 0.025 µM

## CCN(CC)CC(=O)Nc1c(C)cccc1C [Lidocaine]
[7]
  effect on induced spontaneous firing: gradually increased the interspike interval
[8]
  firing rate in neuron slice preparation: slower firing rate
[2]
  use-dependent block of endogenous NaV channels: only minor or no use-dependent block

## [Ba+2].[Cl-].[Cl-] [barium chloride]
[9]
  voltage change during stimulation with block: no detectable voltage change

## CCCCNc1ccc(C(=O)OCCN(C)C)cc1 [tetracaine]
[10]; 4 μM
  time to recover from use-dependent block: approximately 1000 ms
[10]
  IC50: ~4 µM
[11]
  shift of dose response curve after elevated potassium: leftward shifted
[2]; 1 Hz for 20 seconds
  UDI (1 Hz), ratio of IC50(1st response) over IC50(20th response): 8.40
[2]; 1 Hz for 20 seconds, in words
  use-dependent block of endogenous NaV channels: decreased ratio of last peak response over first peak response and more additional block than TTX and most
[2]; [14]
  Hill coeff. @ 1st peak: 1.81
[2]; [15]
  Hill coeff. @ 20th peak: 0.66
[2]; [16]
  IC50: 2.77 ± 1.23 µM
[2]; [17]
  IC50: 0.33 ± 0.2 µM
[12]
  EC50: 35 µM
[6]; read-out: EC50 (fit to dose-response curve), HEK-293 NaV3, 33 V/cm, 10 ms/phase biphasic, 15 Hz burst for 1.5 seconds
  EC50: 11 µM

## CCCCN1CCCCC1C(=O)Nc1c(C)cccc1C (centres unmarked) [Bupivacaine]
[8]
  firing rate in neuron slice preparation: slower firing rate

## COC(=O)[C@@H]1[C@H]2C[C@H]3c4[nH]c5ccccc5c4CCN3C[C@@H]2CC[C@@H]1O [yohimbine]
[2]; 1 Hz for 20 seconds
  UDI (1 Hz), ratio of IC50(1st response) over IC50(20th response): 5.67
[2]; [14]
  Hill coeff. @ 1st peak: 2.05
[2]; 1 Hz stimulation, 1st peak response, read-out: IC50 @ 1st peak
  IC50: 26.7 ± 7.26 µM
[2]; [15]
  Hill coeff. @ 20th peak: 0.99
[2]; 1 Hz stimulation, 20th peak response, read-out: IC50 @ 20th peak
  IC50: 4.7 ± 1.94 µM

## Nc1nnc(-c2cccc(Cl)c2Cl)c(N)n1 [lamotrigine]
[7]
  effect on induced spontaneous firing: gradually increased the interspike interval
[10]
  IC50: ~50 µM
[11]
  shift of dose response curve after elevated potassium: leftward shifted

## CCCCOc1cc(C(=O)NCCN(CC)CC)c2ccccc2n1 [dibucaine]
[2]; 1 Hz for 20 seconds
  UDI (1 Hz), ratio of IC50(1st response) over IC50(20th response): 2.36
[2]; [14]
  Hill coeff. @ 1st peak: 2.35
[2]; [15]
  Hill coeff. @ 20th peak: 1.19
[2]; [16]
  IC50: 1.19 ± 0.22 µM
[2]; [17]
  IC50: 0.51 ± 0.11 µM

## COCC(=O)O[C@]1(CCN(C)CCCc2nc3ccccc3[nH]2)CCc2cc(F)ccc2[C@@H]1C(C)C [mibefradil]
[13]
  change in response lineshape: use-dependent block
